Measured values: patent publication US20230159436A1, “APPLICATIONS OF AMIDE ANALOGS OF TRITERPENES IN CURES OF CANCER AND OTHER DISEASES” (Pacific Arrow Limited, priority 2021, published 2023)

test system: U2OS, H460, HTB-9, ES2, HCT116, Capan, OVCAR3, DU145, SK-Mel-5, KB, A498, MCF-7, HepG2, T98G, K562, HeLa; test: MTT Cytotoxic Assay of reaction products and isolated compounds; format: cell-based
Description: The peaks, fractions and compounds are selected according to the activities of times studies and the changes of peaks. Selecting the HPLC fractions for isolation is according to the cytotoxic activity of the reaction product obtained at a specific time. The compounds having strong to weak activities are selected and isolated. Selecting the HPLC fractions for isolation may be according to the cytotoxic activity of times studies and the change of peaks. The anti cancer activities are the MTT studies of bone (U2OS), lung (H460), bladder (HTB-9), ovary (ES2), colon (HCT116), pancreas (Capan), ovary (OVCAR3), prostate (DU145), skin (SK-Mel-5), mouth (KB), kidney (A498), breast (MCF-7), liver (HepG2), brain (T98G), luekemia (K562), cervix (HeLa).
Esterification, amidation, amination, or sulfonamidation of compound (A), (B), (C), (D1), (D2), (E), (F), (G), (H1), (H2), E4A, E4A2Y, E4D, E4D1, (P1), P(2), terpene, isoprene, triterpenes, hydroxylated triterpenes, with acyl halide, wherein the halide comprise chloride, bromide, fluoride and iodide, wherein the acyl halide comprise acyl chloride, wherein acyl chloride comprise tigloyl chloride, angeloyl chloride, acetyl chloride, crotonoyl chloride, 3,3-dimethylartyloyl chloride, senecioyl chloride, cinnamoyl chloride, pentenoyl chloride, hexanoyl chloride, benzoyl chloride, ethylbutyryl chloride, propionyl chloride, 2-propenoyl chloride, isobutyryl chloride, butyryl chloride, (2E)-2-pentenoyl chloride, 4-Pentenoyl chloride, 5-hexenoyl chloride, heptanoyl chloride, octanoyl chloride, nonanoyl chloride, decanoyl chloride, Lauroyl chloride, myristoyl chloride, oleoyl chloride. The compounds vary in composition when the time or temperature of the reaction is changed. The peaks, fractions and compounds are selected according to the activities of times studies and the changes of peaks. The compounds having strong to weak activities are selected and isolated. The anti cancer activities (Cytotoxic Assay) are the MTT studies of bone (U2OS), lung (H460), bladder (HTB-9), ovary (ES2), colon (HCT116), pancreas (Capan), ovary (OVCAR3), prostate (DU145), skin (SK-Mel-5), mouth (KB), kidney (A498), breast (MCF-7), liver (HepG2), brain (T98G), luekemia (K562), cervix (HeLa). The active esterification, amidation, amination, or sulfonamidation products are purified with HPLC. The reaction product of mixtures and individual compounds are tested with MTT Cytotoxic Assay. Details of method are in Experiment 3 of the present application. A second esterification of compound can be selected from the above experiment results to produce new active compounds. A partial esterification compound is selected from the above experiments to perform a second or repeated with a third esterification with different acyl chloride in order to produce new active compounds with the experiments in the present application. The active compounds of this invention are triterpenes in form of amine, sulfonamides, amide, and urea analogs, providing extremely stable activity in solution. They prolong the activities and duration of drug in a subject.
Cells. HTB-9 (bladder), HeLa-S3 (cervix), DU145 (prostate), H460 (lung), MCF-7 (breast), K562 (leukemia), HCT116 (colon), HepG2 (liver), U2OS (bone), T98G (brain), SK-MEL-5 (Skin) and OVCAR 3, ES2 (ovary), Pancreas (Capan), Mouth (KB), Kidney (A498).
MTT Assay. The procedure for MTT assay followed the method described by Carmichael et al. (1987) with modifications. The cells were seeded into a 96-well plate at for 24 hours before drug-treatment. The cells were then exposed to the drugs for 48, 72, or 96 hours. After the drug-treatment, MTT (0.5 mg/mL) was added to cultures and incubated for an hour. The formazan (product of the reduction of tetrazolium by viable cells) formed and was dissolved with DMSO and the O.D. at 490 nm, and was measured by an ELISA reader. The MTT level of the cells before drug-treatment was also measured (T0). […]

Compound	Cytotoxicity activity
CCC(=O)NCC1(C)C(N)CCC2(C)C1CCC1(C)C2CC=C2C3CC(C)(C)C(N)C(N)C3(CNC(=O)CC)C(N)CC21C (centres unmarked) [LL1]	moderate
C=CCCC(=O)NCC1(C)C(N)CCC2(C)C1CCC1(C)C2CC=C2C3CC(C)(C)C(NC(=O)CCC=C)C(N)C3(CNC(=O)CCC=C)C(N)CC21C (centres unmarked) [CC4]	weak
CCCC(=O)NCC1(C)C(N)CCC2(C)C1CCC1(C)C2CC=C2C3CC(C)(C)C(N)C(N)C3(CNC(=O)CCC)C(N)CC21C (centres unmarked) [PP1]	moderate
CC=CC(=O)NCC1(C)C(O)CCC2(C)C1CCC1(C)C2CC=C2C3CC(C)(C)C(O)C(O)C3(CNC(=O)C=CC)C(O)CC21C (centres unmarked) [I I2]	strong
CC(C)C(=O)NCC1(C)C(N)CCC2(C)C1CCC1(C)C2CC=C2C3CC(C)(C)C(NC(=O)C(C)C)C(N)C3(CN)C(N)CC21C (centres unmarked) [NN3]	moderate
CC=CC(=O)NCC1(C)C(N)CCC2(C)C1CCC1(C)C2CC=C2C3CC(C)(C)C(N)C(N)C3(CNC(=O)C=CC)C(N)CC21C (centres unmarked) [II 1]	moderate
CCCC(=O)NCC1(C)C(N)CCC2(C)C1CCC1(C)C2CC=C2C3CC(C)(C)C(NC(=O)CCC)C(N)C3(CN)C(N)CC21C (centres unmarked) [PP3]	moderate
CC=C(C)C(=O)NCC1(C)C(O)CCC2(C)C1CCC1(C)C2CC=C2C3CC(C)(C)C(O)C(O)C3(CNC(=O)C(C)=CC)C(O)CC21C (centres unmarked) [AA2]	strong
CCCCCC(=O)NCC1(C)C(N)CCC2(C)C1CCC1(C)C2CC=C2C3CC(C)(C)C(NC(=O)CCCCC)C(N)C3(CN)C(N)CC21C (centres unmarked) [DD3]	moderate
CCC(=O)NCC1(C)C(N)CCC2(C)C1CCC1(C)C2CC=C2C3CC(C)(C)C(NC(=O)CC)C(N)C3(CNC(=O)CC)C(N)CC21C (centres unmarked) [LL4]	weak
CC(C)C(=O)NCC1(C)C(O)CCC2(C)C1CCC1(C)C2CC=C2C3CC(C)(C)C(O)C(O)C3(CNC(=O)C(C)C)C(O)CC21C (centres unmarked) [NN2]	strong
C=CC(=O)NCC1(C)C(N)CCC2(C)C1CCC1(C)C2CC=C2C3CC(C)(C)C(N)C(N)C3(CNC(=O)C=C)C(N)CC21C (centres unmarked) [MM1]	moderate
CC1(C)CC2C3=CCC4C5(C)CCC(O)C(C)(CNC(=O)c6ccccc6)C5CCC4(C)C3(C)CC(O)C2(CNC(=O)c2ccccc2)C(O)C1O (centres unmarked) [KK2]	strong
CCC(CC)C(=O)NCC1(C)C(N)CCC2(C)C1CCC1(C)C2CC=C2C3CC(C)(C)C(N)C(N)C3(CNC(=O)C(CC)CC)C(N)CC21C (centres unmarked) [EE1]	moderate
CCC(CC)C(=O)NCC1(C)C(N)CCC2(C)C1CCC1(C)C2CC=C2C3CC(C)(C)C(NC(=O)C(CC)CC)C(N)C3(CNC(=O)C(CC)CC)C(N)CC21C (centres unmarked) [EE4]	weak
CCC=CC(=O)NCC1(C)C(O)CCC2(C)C1CCC1(C)C2CC=C2C3CC(C)(C)C(O)C(O)C3(CNC(=O)C=CCC)C(O)CC21C (centres unmarked) [QQ2]	strong
C=CC(=O)NCC1(C)C(N)CCC2(C)C1CCC1(C)C2CC=C2C3CC(C)(C)C(NC(=O)C=C)C(N)C3(CN)C(N)CC21C (centres unmarked) [MM3]	moderate
CCCC(=O)NCC1(C)C(O)CCC2(C)C1CCC1(C)C2CC=C2C3CC(C)(C)C(O)C(O)C3(CNC(=O)CCC)C(O)CC21C (centres unmarked) [PP2]	strong
CC(C)=CC(=O)NCC1(C)C(O)CCC2(C)C1CCC1(C)C2CC=C2C3CC(C)(C)C(O)C(O)C3(CNC(=O)C=C(C)C)C(O)CC21C (centres unmarked) [BB2]	strong
CC1(C)CC2C3=CCC4C5(C)CCC(N)C(C)(CNC(=O)c6ccccc6)C5CCC4(C)C3(C)CC(N)C2(CNC(=O)c2ccccc2)C(N)C1N (centres unmarked) [KK1]	moderate
CCCCCC(=O)NCC1(C)C(N)CCC2(C)C1CCC1(C)C2CC=C2C3CC(C)(C)C(N)C(N)C3(CNC(=O)CCCCC)C(N)CC21C (centres unmarked) [DD1]	moderate

Compound	Cytotoxicity activity
CC(C)C(=O)NCC1(C)C(N)CCC2(C)C1CCC1(C)C2CC=C2C3CC(C)(C)C(N)C(N)C3(CNC(=O)C(C)C)C(N)CC21C (centres unmarked) [NN1]	moderate
CCCCCC(=O)NCC1(C)C(O)CCC2(C)C1CCC1(C)C2CC=C2C3CC(C)(C)C(O)C(O)C3(CNC(=O)CCCCC)C(O)CC21C (centres unmarked) [DD2]	strong
CCC(=O)NCC1(C)C(O)CCC2(C)C1CCC1(C)C2CC=C2C3CC(C)(C)C(O)C(O)C3(CNC(=O)CC)C(O)CC21C (centres unmarked) [LL2]	strong
CCCCCC(=O)NCC1(C)C(N)CCC2(C)C1CCC1(C)C2CC=C2C3CC(C)(C)C(NC(=O)CCCCC)C(N)C3(CNC(=O)CCCCC)C(N)CC21C (centres unmarked) [DD4]	weak
CC1(C)CC2C3=CCC4C5(C)CCC(N)C(C)(CNC(=O)c6ccccc6)C5CCC4(C)C3(C)CC(N)C2(CNC(=O)c2ccccc2)C(N)C1NC(=O)c1ccccc1 (centres unmarked) [KK4]	weak
CCCC(=O)NCC1(C)C(N)CCC2(C)C1CCC1(C)C2CC=C2C3CC(C)(C)C(NC(=O)CCC)C(N)C3(CNC(=O)CCC)C(N)CC21C (centres unmarked) [PP4]	weak
CC1(C)CC2C3=CCC4C5(C)CCC(N)C(C)(CNC(=O)C=Cc6ccccc6)C5CCC4(C)C3(C)CC(N)C2(CNC(=O)C=Cc2ccccc2)C(N)C1N (centres unmarked) [JJ1]	moderate
CC1(C)CC2C3=CCC4C5(C)CCC(N)C(C)(CNC(=O)C=Cc6ccccc6)C5CCC4(C)C3(C)CC(N)C2(CNC(=O)C=Cc2ccccc2)C(N)C1NC(=O)C=Cc1ccccc1 (centres unmarked) [JJ4]	weak
CC(C)=CC(=O)NCC1(C)C(N)CCC2(C)C1CCC1(C)C2CC=C2C3CC(C)(C)C(N)C(N)C3(CNC(=O)C=C(C)C)C(N)CC21C (centres unmarked) [BB1]	moderate
CCC(CC)C(=O)NCC1(C)C(N)CCC2(C)C1CCC1(C)C2CC=C2C3CC(C)(C)C(NC(=O)C(CC)CC)C(N)C3(CN)C(N)CC21C (centres unmarked) [EE3]	moderate
CC=C(C)C(=O)NCC1(C)C(N)CCC2(C)C1CCC1(C)C2CC=C2C3CC(C)(C)C(NC(=O)C(C)=CC)C(N)C3(CN)C(N)CC21C (centres unmarked) [AA3]	moderate
CC=C(C)C(=O)NCC1(C)C(N)CCC2(C)C1CCC1(C)C2CC=C2C3CC(C)(C)C(NC(=O)C(C)=CC)C(N)C3(CNC(=O)C(C)=CC)C(N)CC21C (centres unmarked) [AA4]	weak
CC(=O)NCC1(C)C(N)CCC2(C)C1CCC1(C)C2CC=C2C3CC(C)(C)C(NC(C)=O)C(N)C3(CNC(C)=O)C(N)CC21C (centres unmarked) [HH4]	weak
CC(=O)NCC1(C)C(O)CCC2(C)C1CCC1(C)C2CC=C2C3CC(C)(C)C(O)C(O)C3(CNC(C)=O)C(O)CC21C (centres unmarked) [HH2]	strong
CC=CC(=O)NCC1(C)C(N)CCC2(C)C1CCC1(C)C2CC=C2C3CC(C)(C)C(NC(=O)C=CC)C(N)C3(CN)C(N)CC21C (centres unmarked) [I I3]	moderate
C=CCCC(=O)NCC1(C)C(N)CCC2(C)C1CCC1(C)C2CC=C2C3CC(C)(C)C(N)C(N)C3(CNC(=O)CCC=C)C(N)CC21C (centres unmarked) [CC1]	moderate
CC1(C)CC2C3=CCC4C5(C)CCC(O)C(C)(CNC(=O)C=Cc6ccccc6)C5CCC4(C)C3(C)CC(O)C2(CNC(=O)C=Cc2ccccc2)C(O)C1O (centres unmarked) [JJ2]	strong
CC=C(C)C(=O)NCC1(C)C(N)CCC2(C)C1CCC1(C)C2CC=C2C3CC(C)(C)C(N)C(N)C3(CNC(=O)C(C)=CC)C(N)CC21C (centres unmarked) [AA1]	moderate
CC(=O)NCC1(C)C(N)CCC2(C)C1CCC1(C)C2CC=C2C3CC(C)(C)C(NC(C)=O)C(N)C3(CN)C(N)CC21C (centres unmarked) [HH3]	moderate
C=CC(=O)NCC1(C)C(N)CCC2(C)C1CCC1(C)C2CC=C2C3CC(C)(C)C(NC(=O)C=C)C(N)C3(CNC(=O)C=C)C(N)CC21C (centres unmarked) [MM4]	weak
